Source: patent publication US8138188B2, “Melanocortin type 4 receptor agonist piperidinoylpyrrolidines” (Pfizer Inc., priority 2006, dated 2012)

Assays:
human MC3 receptor = molecular target: T1, human MC3 receptor (Homo sapiens, UniProt P41968); experiment: In vitro agonist potency (EC50) against melanocortin receptor type 3, cAMP in recombinant cell line; format: cell-based; conditions: cell line stably transfected with human MC3, 1 hour at 37° C.
T1 construct: stably transfected with full length cDNA encoding human MC1 or MC3 receptors; expressed in transfected cells; host or cells: Chinese hamster ovary cell line (MC3; 'respectively')
Procedure: Measurement of In Vitro Agonist Potency (EC50) of Compounds Against Melanocortin Receptors Type 1 and 3 (MC1 and MC3).
Activation of melanocortin (MC) receptors by agonists results in activation of intracellular adenylate cyclase enzymes that synthesise the second messenger signalling molecule, adenosine 3′,5′-cyclic monophosphate (cAMP). Changes in cAMP levels following treatment of recombinant MC1 and MC3 cell lines with test compound were measured and an MC1 and MC3 potency estimate (EC50) calculated as follows: […]
Human embryonic kidney (HEK) or Chinese hamster ovary cell lines stably transfected with full length cDNA encoding human MC1 or MC3 receptors, respectively, were established using standard molecular biology methods. Test compounds were dissolved in dimethyl sulfoxide (DMSO) at 4 mM. 11 point half log unit increment dilution series of test compound, typically starting at 50 uM were prepared in a buffer comprised of phosphate buffered saline (PBS), 2.5% DMSO and 0.05% pluronic F-127 surfactant. Freshly cultured cells at 80-90% confluence were harvested and re-suspended in Dulbecco's Modified Eagle's Medium (DMEM). Cells (10,000 for MC3, 20,000 for MC1) were added to the test compound dilution series in a 384 well assay plate and incubated for 1 hour at 37° C. The relative cAMP concentration in each well was then measured using a β-galactosidase enzyme fragment complementation method purchased in kit form as the Discoverx cAMP II kit from GE Healthcare/Amersham Biosciences UK. In the case of MC1,3-Isobutyl-1-methylxanthine (IBMX) at a concentration of 750 μM was included in DMEM as the cells were re-suspended for assay. […] Sigmoidal curves were fitted to plots of log10 inhibitor concentration vs percent effect using a custom made software application called SIGHTS and EC50 estimates determined by the software as the concentration of test compound giving an effect half way between the bottom and top assymptopes of the sigmoidal dose response curve. Each experiment included an EC50 determination for alpha melanocyte stimulating hormone, which was used as a standard to track assay consistency and allow fair comparison between EC50 estimates obtained in different experiments.

MC4 receptor (MC4R) = molecular target: T2, MC4 receptor (MC4R) (Homo sapiens, UniProt P32245); experiment: AGRP inhibition: competition binding vs [125I]AGRP(87-132) at CHO-CRE MC4R cell membranes; conditions: vs 0.3 nM [125I]AGRP(87-132)
T2 construct: expressed in transfected cells; host or cells: CHO-CRE MC4R cells (membranes)
Source text: Agouti related protein (AGRP) is a high affinity endogenous antagonist/inverse agonist for the MC4 receptor (Lu et al., 1994, Nature 371: 799-802; Oilman et al., 1997, Science 278: 135-138). […] It has been ascertained that this C-terminal fragment of AGRP contains the MC4R binding determinants (Yang et al., 1999, Mol Endocrinol 13: 148-155), therefore, compounds can be evaluated for their ability to inhibit AGRP binding to membranes from cells expressing the MC4R using a competition binding assay versus [^125I]AGRP(87-132). To this end cells expressing the MC4R were subject to homogenisation and the membrane fragment isolated by differential centrifugation. CHO-CRE MC4R cell membranes (12 μg protein) were incubated with 0.3 nM [^125I]AGRP(87-132) and 11 half-log concentrations of competitor ligand, in duplicate, in a total volume of 100 μl buffer (25 mM HEPES, 1 mM MgCl2, 2.5 mM CaCl2, 0.5% BSA pH 7.0). Non-specific binding was determined by the inclusion of 1 μM SHU9119. The reaction was initiated by the addition of membranes and plates were incubated at room temperature for 2 hours. The reaction was terminated by rapid filtration onto GF/C filters (presoaked in 1% PEI) using a vacuum harvester followed by five 200 μl washes of ice cold wash buffer (Binding buffer containing 500 mM NaCl). The filters were soaked in 50 μl scintillation fluid and the amount of radioactivity present was determined by liquid scintillation counting. Ki values were determined by data analysis using appropriate software.

T1 sequence (P41968 whole entry): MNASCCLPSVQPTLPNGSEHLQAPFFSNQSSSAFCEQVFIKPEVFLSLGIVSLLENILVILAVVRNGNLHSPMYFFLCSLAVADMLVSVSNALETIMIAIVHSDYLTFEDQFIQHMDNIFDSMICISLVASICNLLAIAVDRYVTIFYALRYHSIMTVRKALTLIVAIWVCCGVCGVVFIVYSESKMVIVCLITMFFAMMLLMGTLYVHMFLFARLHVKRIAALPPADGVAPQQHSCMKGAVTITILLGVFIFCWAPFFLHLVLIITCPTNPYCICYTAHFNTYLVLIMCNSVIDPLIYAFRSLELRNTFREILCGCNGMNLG
T2 sequence (P32245 whole entry): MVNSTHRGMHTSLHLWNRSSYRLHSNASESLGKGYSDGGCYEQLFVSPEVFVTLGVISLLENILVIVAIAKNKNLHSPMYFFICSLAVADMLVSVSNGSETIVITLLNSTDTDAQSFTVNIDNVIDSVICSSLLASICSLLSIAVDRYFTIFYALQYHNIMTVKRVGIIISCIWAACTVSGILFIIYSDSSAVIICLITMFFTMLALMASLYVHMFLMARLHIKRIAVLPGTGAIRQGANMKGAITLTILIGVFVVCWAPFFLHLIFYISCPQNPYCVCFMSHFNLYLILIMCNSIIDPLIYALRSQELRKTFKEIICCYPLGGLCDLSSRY

| EC50 (human MC3 receptor) | Ki (MC4 receptor (MC4R)) | Structure (SMILES) |
| --- | --- | --- |
| > 20300 nM | 888 nM | COc1ccc(C2CN(c3ccc(=O)[nH]n3)CC2C(=O)N2CC(C)C(O)(c3ccc(F)cc3)C(C)C2)nc1 (centres unmarked) [Example 42] |
| 1590 nM | 248 nM | COc1ccc([C@@H]2CN(c3ccc(C#N)nn3)C[C@H]2C(=O)N2C[C@@H](C)[C@](O)(c3ccc(F)cc3)[C@@H](C)C2)nc1 [Example 43] |
| 66.1 nM | 251 nM | CC1CN(C(=O)C2CN(c3ccc(C#N)cn3)CC2c2ccc(C#N)cn2)CC(C)C1(O)c1ccc(F)cc1 (centres unmarked) [Example 45] |
| 50.8 nM | 134 nM | C[C@@H]1CN(C(=O)[C@@H]2CN(c3ccc(C#N)nn3)C[C@H]2c2ccc(C#N)cn2)C[C@H](C)[C@@]1(O)c1ccc(F)cc1 [Example 46] |
